Results as given in patent publication US9045461B2, “Phenyl-heteroaryl derivatives and methods of use thereof” (TransTech Pharma, LLC, priority 2010, dated 2015).
Counter-ions that a name gives are not always drawn.

What was measured:
[1] = molecular target: T1, sRAGE binding to β-amyloid (Homo sapiens, UniProt Q15109); assay: RAGE binding assay (ELISA), β-amyloid as the RAGE ligand; conditions: compounds tested in hydrochloride salt form, concentration at which 50% signal has been inhibited
T1 construct: extracellular domain can be isolated by proteolysis of RAGE to generate soluble RAGE (sRAGE) comprised of the V and C domains
How it was run: (§1)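 Ligand (500 ng/well) coated in carbonate buffer pH 9.8 overnight at 4° C and blocked with 1% BSA; test compound (10-100 μM in water, 4% DMSO co-solvent) incubated with sRAGE (6 nM FAC) 1 h at 37° C. Bound sRAGE detected by anti-sRAGE/biotin-anti-mouse/AP-streptavidin with pNPP, A405. IC50 = 50% signal inhibition.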

sRAGE binding to S100b = molecular target: T2, sRAGE binding to S100b (Homo sapiens, UniProt Q15109); assay: RAGE binding assay (ELISA), S100b as the RAGE ligand; conditions: compounds tested in hydrochloride salt form, concentration at which 50% signal has been inhibited
T2 construct: extracellular domain can be isolated by proteolysis of RAGE to generate soluble RAGE (sRAGE) comprised of the V and C domains
How it was run: as §1

T2 sequence (Q15109 23-342 limits assumed): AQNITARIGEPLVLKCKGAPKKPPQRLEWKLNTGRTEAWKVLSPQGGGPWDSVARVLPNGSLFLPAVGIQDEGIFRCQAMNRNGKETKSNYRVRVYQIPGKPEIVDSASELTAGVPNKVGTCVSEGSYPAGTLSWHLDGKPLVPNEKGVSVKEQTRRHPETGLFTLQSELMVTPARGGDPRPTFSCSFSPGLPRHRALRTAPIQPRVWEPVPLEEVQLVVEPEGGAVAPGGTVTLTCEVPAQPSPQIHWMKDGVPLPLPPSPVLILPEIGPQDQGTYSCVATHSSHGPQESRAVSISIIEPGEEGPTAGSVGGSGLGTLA
T1 sequence (Q15109 23-342 limits assumed): as above

| SMILES | IC50 [1] [nM] | IC50 (sRAGE binding to S100b) [nM] |
| --- | --- | --- |
| CCCCc1nnc(OC2CCN(C)CC2)cc1-c1ccc(OC2CCCCC2)c(N2CCCS2(=O)=O)c1 [Example 75, 3-Butyl-4-[4-cyclohexyloxy-3-(1,1-dioxo-1lambda*6*-isothiazolidin-2-yl)-phenyl]-6-(1-methyl-piperidin-4-yloxy)-pyridazine dihydrochloride] | 2850 | 2190 |
| CCCCc1nnc(OC2CCN(C)CC2)cc1-c1ccc(OC2CCCCC2)c(C2=NC(C)(C)CO2)c1 [Example 76, 3-Butyl-4-[4-cyclohexyloxy-3-(4,4-dimethyl-4,5-dihydro-oxazol-2-yl)-phenyl]-6-(1-methyl-piperidin-4-yloxy)-pyridazine] | 6780 | 2070 |
| CCCCc1nnc(OC2CCN(C)CC2)cc1-c1ccc(OC2CCCCC2)c(NC(=O)NC(C)(C)C)c1 [Example 77, 1-tert-Butyl-3-{5-[3-butyl-6-(1-methyl-piperidin-4-yloxy)-pyridazin-4-yl]-2-cyclohexyloxy-phenyl}-urea dihydrochloride] | 660 | 680 |
| CCCCc1nnc(OC2CCN(C)CC2)cc1-c1ccc(OC2CCCCC2)c(-c2cnn(CCOC)c2)c1 [Example 78, 3-Butyl-4-{4-cyclohexyloxy-3-[1-(2-methoxy-ethyl)-1H-pyrazol-4-yl]-phenyl}-6-(1-methyl-piperidin-4-yloxy)-pyridazine dihydrochloride] | 1160 | 500 |
| CCCCc1nnc(OC2CCN(C)CC2)cc1-c1ccc(OC2CCCCC2)c(-c2nnn(C)n2)c1 [Example 79, 3-Butyl-4-[4-cyclohexyloxy-3-(2-methyl-2H-tetrazol-5-yl)-phenyl]-6-(1-methyl-piperidin-4-yloxy)-pyridazine dihydrochloride] | 1490 | 1470 |
| CCCCc1nnc(C(=O)NC2CCN(C)CC2)cc1-c1ccc(OCc2ccccc2)cc1 [Example 80, 5-(4-Benzyloxy-phenyl)-6-butyl-pyridazine-3-carboxylic acid (1-methyl-piperidin-4-yl)-amide dihydrochloride] | 1250 | 1250 |
| CCCCc1nnc(C(=O)NCC2CCN(C)CC2)cc1-c1ccc(OCc2ccccc2)cc1 [Example 81, 5-(4-Benzyloxy-phenyl)-6-butyl-pyridazine-3-carboxylic acid (1-methyl-piperidin-4-ylmethyl)-amide dihydrochloride] | 1540 | 1820 |
| CCCCc1nnc(C(=O)N[C@@H]2CN3CCC2CC3)cc1-c1ccc(OCc2ccccc2)cc1 [Example 82, 5-(4-Benzyloxy-phenyl)-6-butyl-pyridazine-3-carboxylic acid (S)-(1-aza-bicyclo[2.2.2]oct-3-yl)-amide dihydrochloride] | 1290 | 1270 |
| CCCCc1nnc(C(=O)N[C@H]2CN3CCC2CC3)cc1-c1ccc(OCc2ccccc2)cc1 [Example 83, 5-(4-Benzyloxy-phenyl)-6-butyl-pyridazine-3-carboxylic acid (R)-(1-aza-bicyclo[2.2.2]oct-3-yl)-amide dihydrochloride] | 1130 | 1180 |
| CCCCc1nnc(C(=O)NC2CCN(C)CC2)cc1-c1ccc(OC2CCCCC2)cc1 [Example 84, 6-Butyl-5-(4-cyclohexyloxy-phenyl)-pyridazine-3-carboxylic acid (1-methyl-piperidin-4-yl)-amide dihydrochloride] | 1960 | 1560 |
| CCCCc1nnc(C(=O)N[C@@H]2CN3CCC2CC3)cc1-c1ccc(OC2CCCCC2)cc1 [Example 85, (S)-6-Butyl-5-(4-cyclohexyloxy-phenyl)-pyridazine-3-carboxylic acid (1-aza-bicyclo[2.2.2]oct-3-yl)-amide dihydrochloride] | 1970 | 1490 |
| CCCCc1nnc(C(=O)N[C@H]2CN3CCC2CC3)cc1-c1ccc(OC2CCCCC2)cc1 [Example 86, (R)-6-Butyl-5-(4-cyclohexyloxy-phenyl)-pyridazine-3-carboxylic acid (1-aza-bicyclo[2.2.2]oct-3-yl)-amide dihydrochloride] | 1020 | 1920 |
| CCCCc1nnc(C(=O)NC[C@H](O)CN(C)C)cc1-c1ccc(OC2CCCCC2)cc1 [Example 87, 6-Butyl-5-(4-cyclohexyloxy-phenyl)-pyridazine-3-carboxylic acid ((S)-3-dimethylamino-2-hydroxy-propyl)-amide dihydrochloride] | 2430 | 1970 |
| CCCCc1nnc(C(=O)NC[C@@H](O)CN(C)C)cc1-c1ccc(OC2CCCCC2)cc1 [Example 88, 6-Butyl-5-(4-cyclohexyloxy-phenyl)-pyridazine-3-carboxylic acid ((R)-3-dimethylamino-2-hydroxy-propyl)-amide dihydrochloride] | 2460 | 2030 |
| CCCCc1nnc(C(=O)NCC2(OC)CCN(C)CC2)cc1-c1ccc(OC2CCCCC2)cc1 [Example 89, 6-Butyl-5-(4-cyclohexyloxy-phenyl)-pyridazine-3-carboxylic acid (4-methoxy-1-methyl-piperidin-4-ylmethyl)-amide dihydrochloride] | 2010 | 2730 |
| CCCCc1nnc(C(=O)NCC2CNCCO2)cc1-c1ccc(OC2CCCCC2)cc1 (centres unmarked) [Example 90, 6-Butyl-5-(4-cyclohexyloxy-phenyl)-pyridazine-3-carboxylic acid (morpholin-2-ylmethyl)-amide dihydrochloride] | 1780 | 1540 |
| CCCCc1nnc(C(=O)NC[C@H]2CCCN2CC)cc1-c1ccc(OC2CCCCC2)cc1 [Example 91, 6-Butyl-5-(4-cyclohexyloxy-phenyl)-pyridazine-3-carboxylic acid ((R)-1-ethyl-pyrrolidin-2-ylmethyl)-amide dihydrochloride] | 1390 | 1140 |
| CCCCc1nnc(C(=O)NC[C@@H]2CCCN2CC)cc1-c1ccc(OC2CCCCC2)cc1 [Example 92, 6-Butyl-5-(4-cyclohexyloxy-phenyl)-pyridazine-3-carboxylic acid ((S)-1-ethyl-pyrrolidin-2-ylmethyl)-amide dihydrochloride] | 1020 | 1750 |
| CCCCc1nnc(C(=O)NCCN2CCC(O)CC2)cc1-c1ccc(OC2CCCCC2)cc1 [Example 93, 6-Butyl-5-(4-cyclohexyloxy-phenyl)-pyridazine-3-carboxylic acid [2-(4-hydroxy-piperidin-1-yl)-ethyl]-amide dihydrochloride] | 2510 | 1690 |
| CCCCc1nnc(C(=O)NCC2(O)CCN(C)CC2)cc1-c1ccc(OC2CCCCC2)cc1 [Example 94, 6-Butyl-5-(4-cyclohexyloxy-phenyl)-pyridazine-3-carboxylic acid (4-hydroxy-1-methyl-piperidin-4-ylmethyl)-amide dihydrochloride] | 1950 | 2550 |
| CCCCc1nnc(C(=O)N[C@H]2CC[C@@H](N(C)C)CC2)cc1-c1ccc(OC2CCCCC2)cc1 [Example 95, (±)-(cis)-6-Butyl-5-(4-cyclohexyloxy-phenyl)-pyridazine-3-carboxylic acid (4-dimethylamino-cyclohexyl)-amide dihydrochloride] | 1050 | 690 |
| CCCCc1nnc(C(=O)NC2CC3CCC(C2)N3C)cc1-c1ccc(OC2CCCCC2)cc1 (centres unmarked) [Example 96, 6-Butyl-5-(4-cyclohexyloxy-phenyl)-pyridazine-3-carboxylic acid (8-methyl-8-aza-bicyclo[3.2.1]oct-3-yl)-amide dihydrochloride] | 940 | 1160 |
| CCCCc1nnc(C(=O)N2CCO[C@@H](CN(C)C)C2)cc1-c1ccc(OC2CCCCC2)cc1 [Example 97, [6-Butyl-5-(4-cyclohexyloxy-phenyl)-pyridazin-3-yl]-((S)-2-dimethylaminomethyl-morpholin-4-yl)-methanone dihydrochloride] | 1720 | 1890 |
| CCCCc1nnc(C(=O)N2CCO[C@H](CN(C)C)C2)cc1-c1ccc(OC2CCCCC2)cc1 [Example 98, [6-Butyl-5-(4-cyclohexyloxy-phenyl)-pyridazin-3-yl]-((R)-2-dimethylaminomethyl-morpholin-4-yl)-methanone dihydrochloride] | 1620 | 1990 |
| CCCCc1nnc(C(=O)NCC2CN(C)CCC2(F)F)cc1-c1ccc(OC2CCCCC2)cc1 (centres unmarked) [Example 99, 6-Butyl-5-(4-cyclohexyloxy-phenyl)-pyridazine-3-carboxylic acid (4,4-difluoro-1-methyl-piperidin-3-ylmethyl)-amide dihydrochloride] | 1810 | 1820 |
| CCCCc1nnc(C(=O)NCC2CN(C)CCC2O)cc1-c1ccc(OC2CCCCC2)cc1 (centres unmarked) [Example 100, 6-Butyl-5-(4-cyclohexyloxy-phenyl)-pyridazine-3-carboxylic acid (4-hydroxy-1-methyl-piperidin-3-ylmethyl)-amide dihydrochloride] | 1160 | 590 |
| CCCCc1nnc(C(=O)NCC2CN(C)CCC2OC)cc1-c1ccc(OC2CCCCC2)cc1 (centres unmarked) [Example 101, 6-Butyl-5-(4-cyclohexyloxy-phenyl)-pyridazine-3-carboxylic acid (4-methoxy-1-methyl-piperidin-3-ylmethyl)-amide dihydrochloride] | 940 | 660 |
| CCCCc1nnc(C(=O)NCC2CCN(C)CC2)cc1-c1ccc(OC2CCCCC2)cc1 [Example 103, 6-Butyl-5-(4-cyclohexyloxy-phenyl)-pyridazine-3-carboxylic acid (1-methyl-piperidin-4-ylmethyl)-amide dihydrochloride] | 1110 | 1770 |
